# Assay results reported in article PMC12186697, “HypoxyStat, a small-molecule form of hypoxia therapy that increases oxygen-hemoglobin affinity” (Cell, 2025).
# Assays:
# Ndufs4 KO mouse [1] = assay: Ndufs4 KO mouse model of Leigh syndrome (survival, body weight, temperature, behavior, neuropathology); assay type: in vivo; conditions: daily HypoxyStat initiated at P50
# Ndufs4 KO mouse [2] = assay: as above; assay type: in vivo
# From the text: We continuously bred Ndufs4 Het x Het mice to generate KO and controls for our experiments. Ndufs4+/− and WT mice were used as controls as they are identical in all previously reported assays. Ndufs4 mice were obtained directly from Jackson labs (#027058). Pups were weaned and genotyped at ~21 d after birth. The age of mice at the time of experiments is described throughout the text. Male and female mice were used throughout studies. All cages were provided with food and water, with hydrated gel provided to newly weaned cages. Body weights were recorded at every dosing. Mice were euthanized according to guidelines at 20% drop in peak body weight. All animal studies were approved by the Institutional Animal Care & Use Committee (IACUC) Program at UCSF/Gladstone.
# (§1) Mice were administered HypoxyStat at 600 mg/kg every other day or 400mg/kg daily via oral gavage. For the disease prevention experiments, KO mice that underwent daily dosing were dosed starting ~P30 for 1 week of 200mg/kg daily, followed by 400mg/kg daily to allow for gradual dose escalation. For the reversal study, KO mice were dosed once with 200mg/kg on postnatal day ~P55, followed by 400mg/kg daily. HypoxyStat was formulated as a suspension at 60 mg/mL, 40mg/ml or 80mg/ml depending on dose in 0.5%HPMC and stored at 4 °C. The formulation was determined to be stable for at least 8 weeks. Animal body weight was taken at time of dosing to determine appropriate dosing volume (10 mL/kg for every other day dosing, 5ml/kg for daily dosing). Vehicle treated mice were administered the same volume of 0.5% HPMC.
# Mice were euthanized via CO2 inhalation. To perfuse the whole body, the right atrium was nicked and a needle was inserted into the left ventricle. Ice-cold PBS was slowly injected first, followed immediately by 4% PFA solution. The brain was removed, stored in 4% PFA for 24–48 h, and then washed with PBS for 5 min (3 times). The brains were placed in 70% ethanol followed by paraffin embedding. For paraffin sections, brains were sagittally sectioned at 5 μm thickness. Prior to staining, sections were deparaffinized. Antigen retrieval was performed by heating the slides to boiling temperature in 10 mM sodium citrate solution (pH 6) in a microwave, followed by heating for 10 minutes. The sections were rinsed 3 times for 5 minutes each with PBS. They were then incubated in a blocking solution containing 5% donkey serum (DS) in PBS-Tx (PBS with 0.2% Triton X-100) for 60 minutes at room temperature. After blocking, sections were incubated overnight at 4C with the primary antibody IBA1 (Genetex GTX100042, 1:250) and NeuN (Sigma, MAB377, 1:500). Afterward, the sections were rinsed 3 times for 5 minutes with PBS-Tx. Next, they were incubated with a fluorophore-conjugated secondary antibodies (Invitrogen, A21206 or A31570) for 1 hour at room temperature. Following secondary antibody incubation, the sections were rinsed 3 times for 5 minutes with PBS-Tx, and then once for 5 minutes with PBS. Histology was quantified using either the percentage of Iba1+ positive signal or blinded scoring (on the scale of 1–5).
# The open field instrument (San Diego Instruments) was used to measure spontaneous locomotor activity. Mice were placed in open field chambers and allowed to acclimate for 5 min before movement tracking for 20min. Spontaneous locomotor activity was measured based on beam breaks and recorded by the instrument. Age of measurements is +/− 5 days for practical purposes without any age bias between groups.
# [3] = Stability of dosing suspension; assay type: physicochemical; conditions: suspension in 0.5% HPMC, stored at 4 °C
# Method: as §1
# Hb = Hb occupancy estimate from blood levels of compound and Hb; assay type: in vivo; conditions: day 12, C57BL/6 mice
# Method: We conducted a PK/PD study to determine the optimal dosing strategy for HypoxyStat in a chronic setting. First we administered a single 10 mg/kg oral dose of HypoxyStat to adult C57BL/6 mice and monitored its concentration in blood and plasma over a 10-day period (Figure 3A, left). Next, we administered HypoxyStat at doses of 20, 60, 200, and 600 mg/kg via oral gavage three times per week for 12 days. […] Based on blood levels of HypoxyStat and Hb measured on day 12, we estimated Hb occupancy to be 29.3% at 200 mg/kg and 41.4% at 600 mg/kg (Figure S1).[27]
# Figure S1. Hemoglobin occupancy estimates, related to Figure 1
# LC/MS/MS measurement of steady-state whole-blood HypoxyStat concentrations after day 12 administration in C57BL/6 mice (200 or 600 mg/kg PO, […]
# week in 0.5% HPMC), N = 10 per group.
# (A) Oral administration of HypoxyStat every other day (vehicle = 0.5% HPMC).
# (B) LC/MS/MS measurement of steady-state mean whole-blood HypoxyStat concentrations after day 12 administration in C57BL/6 mice.
# (C) Hb concentration after analogous treatment.
# (D) Hb occupancy was calculated by dividing the HypoxyStat concentration in blood by the Hb concentration in blood on day 12.
compound,measurement,setting,value
O=Cc1ccccc1C(=O)N1CCCC[C@H]1COc1cccc(O)c1C=O [HypoxyStat],"reversal of body weight loss, impaired behavior and neurological lesions in late-stage KO mice",Ndufs4 KO mouse [1],reversed multiple other disease presentations
same,lifespan of late-stage Ndufs4 KO mice,Ndufs4 KO mouse [1]; p < 0.05 Mantel-Cox,significantly extended the lifespan
same,lifespan increase of Ndufs4 KO mice,Ndufs4 KO mouse [2]; 400 mg/kg daily oral gavage from P30 (1 week at 200 mg/kg),3–4 ×
same,tolerability of chronic dosing in control (WT or heterozygous) mice,"Ndufs4 KO mouse [2]; 600 mg/kg every other day or 400 mg/kg daily, all control mice survived",well tolerated
same,lifespan increase of Ndufs4 KO mice,Ndufs4 KO mouse [2]; 600 mg/kg every other day oral gavage from P30,1.5–2 ×
same,body temperature of Ndufs4 KO mice,Ndufs4 KO mouse [2]; HypoxyStat from P30,restored body temperature to normal levels
same,motor coordination (rotarod) and spontaneous activity (open field) of KO mice,Ndufs4 KO mouse [2]; HypoxyStat from P30,significantly improved motor coordination and spontaneous activity
same,body weight of drug-treated KO mice,"Ndufs4 KO mouse [2]; HypoxyStat from P30, comparable with inhaled hypoxia",increased body weight
same,lesion severity (Iba1 staining for microglial activation) at P50,"Ndufs4 KO mouse [2]; KO mice treated from P30, p < 0.05 vs vehicle",significant reduction in lesion severity
same,stability of formulation,[3],at least 8 weeks
same,Hb occupancy,Hb; 200 mg/kg PO 3 times per week,29.3%
same,Hb occupancy,Hb; 600 mg/kg PO 3 times per week,41.4%
